Data from patent US20160193179A1, “Treatment of Cardiovascular Risk in Diabetic Patients” (EVOLVA SA, priority 2012, published 2016).

Legend:
Type in all cases: cell-based, human
[1] = tested on: 6-keto PGF1α secretion by HUVEC; assay: 6-keto PGF1α EIA, secretion by HUVEC; settings: HUVEC 6 h
Method: 6-ketoPGF1α secretion is evaluated using a specific EIA assay. Results are expressed in picograms of 6-ketoPGF1α reported to micrograms of proteins measured by the Folin method on cell lysates. Data are means±S.D. (n=3). Statistical analysis: one way ANOVA followed by Bonferroni, Versus CTL, * p<0.05.
HUVEC are seeded at 25,000 cells/well on gelatin-coated 24-well plate (Corning) in EGM. After 48 h, cell medium is replaced by EBM containing or not containing Compound 3 at different concentrations. After 1 h of preincubation, 1 ng/ml TNFα is added or is not added to the wells. 6 h after adding TNFα, medium of each well is collected and cell lysis is performed in NaOH 0.5 N for 30 min. PTX3 secretion in the incubation medium is assayed using specific ELISAs (#DPTX30, Quantikine, R&D Systems, USA) according to the procedure provided by the supplier. 6-ketoPGF1α levels in cell culture media are determined using a competitive assay (#515211, Cayman, USA). Results are expressed in picograms of PTX3 or 6-ketoPGF1α reported to micrograms of proteins measured by the Folin method (Folin-Ciocalteu's phenol reagent, Merck, Germany) in cell lysates.

[2] = tested on: PARP cleavage in HUVEC; assay: PARP-1 cleavage (apoptosis) by western blot in HUVEC
Method: FIGS. 3C and 3D show the effect of Compound 3 on PARP cleavage induced by TNFα in HUVEC after 6 h of incubation. C) Total protein extracts are recovered and analysed by western blot. β-actin serves as the loading control. D) Quantification of optical density of each band and expression of the ratio between the optical density of PARP cleavage and the total of PARP.
HUVEC are seeded at 187,500 cells/flask in gelatin-coated T75 in EGM. After 4 days, cell medium is replaced by EBM containing or not containing Compound 3 at different concentrations. After 1 h of preincubation, 1 ng/ml TNFα is added or is not added into the T75 flasks. 6 h after, cell media are collected and centrifuged at 500 g for 5 min to pellet and pool floating cells with adherent cells. Adherent cells are washed twice with cold PBS and are collected in 1.5 ml of PBS. Harvested cells are then centrifuged at 500 g for 5 min at 4° C. […] Protein concentration is measured using Pierce method (Pierce 660 nm protein assay, Thermoscientific, USA) with the Ionic Detergent Compatibility Reagent (Thermoscientific, USA). […] Antibody binding was analysed with the scanner Odyssey Image System (Li-COR, Biosciences, USA) and Odyssey V3.0 software. Optical density of each band is also determined by using the software.

[3] = tested on: COX-2, IL-6, IL-8, ICAM-1, VCAM-1, PTX3, MCP-1 mRNA expression in HUVEC; assay: Real time RT-PCR of TNFα-induced mRNA expression in HUVEC; settings: for ICAM-1 mRNA expression induced by TNFα / PTX3 mRNA expression induced by TNFα: 1 ng/ml TNFα 6 h
Method: FIGS. 1 and 2A show the effects of Compound 3 on mRNA expression of genes of interest encoding inflammatory or oxidative markers. mRNA expression is evaluated by quantitative RT-PCR in HUVEC after 6 h of TNFα stimulation. Data are means±S.D. (n=3). Statistical analysis: one way ANOVA followed by Bonferroni, Versus CTL NS p>0.05, * p<0.05, ** p<0.01, *** p<0.001; Versus TNFα $ p<0.05, $$ p<0.01, $$$ p<0.001.
HUVEC are seeded at 67,500 cells/flask in gelatin-coated T25 in EGM. After 4 days, cell medium is replaced by EBM containing or not containing Compound 3 at different concentrations. After 1 h of preincubation, 1 ng/ml TNFα is added or is not into the T25 flasks. 6 h after, cell medium is discarded and cells are washed twice with PBS. Total RNA extraction is performed by using QIAGEN RNeasy mini Kit according to the protocol provided by the manufacturer (QIAGEN). RNA concentration for each sample is determined by Nanodrop Spectrophotometer ND-100 (ISOGEN, Life Science). Reverse transcription was performed using Transcriptor First Strand cDNA Synthesis Kit Roche (Roche Applied Science). Transcript levels are determined by quantitative reverse transcription polymerase chain reaction (qRT-PCR). cDNA obtained by reverse transcription of total RNA are diluted 100 times and 5 μl are mixed with 12.5 μl of Fast start Universal SYBRGreen Master (Roche), 2.5 μl MilliQ water, 2.5 μl of diluted primer forward and 2.5 μl of diluted primer reverse to have an optimal and final concentration of 300 nM or 900 nM. PCRs are carried out in a real-time PCR cycler (Applied Biosystems 7900HT Fast Real-time PCR System): a hot start at 95° C. for 5 min is followed by 40 cycles at 95° C. for 15 s and 65° C. for 1 min. Samples are compared using the relative cycle threshold (Ct) method. To normalize the load of cDNA for each sample, RPL13 is used as the endogenous standard. Primer sequences are listed below.
List of primers used in real time RT-PCR.

[4] = from 100 nM, not increased at 300 nM and 600 nM

For CC(C)(C)N.O=C(O)CC/C=C\C[C@@H]1CO[C@H](c2ccccc2Cl)O[C@@H]1c1ccccc1O [Compound 3, tert-butylammonium (Z)-6-((2S,4S,5R)-2-(2-chlorophenyl)-4-(2-hydroxyphenyl)-1,3-dioxan-5-yl)hex-4-enoate], which “6-keto PGF1α secretion” value ([1]; 600 nM Compound 3 together with 1 ng/ml TNFα) is on record?
Its value is “significant increase”.

And the “6-keto PGF1α secretion” value ([1]; Compound 3 alone, without TNFα)?
The value was “do not increase”.

And the “induction of apoptosis (PARP cleavage) by the compound itself” value ([2]; HUVEC 6 h, without TNFα)?
The value was “does not induce apoptosis”.

What about the “PARP cleavage induced by TNFα” value ([2]; HUVEC, TNFα 6 h, western blot) of the same molecule?
The value was “does not decrease”.

And the “ICAM-1 mRNA expression induced by TNFα” value ([3]; 10 nM)?
Its value is “no effect”.

What about the “PTX3 mRNA expression induced by TNFα” value ([3]; 10 nM) of the same molecule?
Its value is “no effect”.

What about the “ICAM-1 mRNA expression induced by TNFα” value [3, 4] of the same molecule?
Its value is “significant decrease”.

What about the “PTX3 mRNA expression induced by TNFα” value [3, 4] of the same molecule?
The value was “significant decrease”.

And the “mRNA expression of all genes of interest (COX-2, IL-6, IL-8, ICAM-1, VCAM-1, PTX3, MCP-1)” value ([3]; Compound 3 at the highest concentration, without TNFα)?
The value was “no effect”.
